Measured values taken from US20260027068A1, “METHODS OF ADM[…]-KETAMINE” (Perception Neuroscience, Inc., priority 2022, published 2026).

Test: Temperature (vital signs)
Settings: 60 mg
Method: The Investigational Medicinal Product (IMP) R(−)-ketamine hydrochloride in sterile water for intravenous injection was investigated as an […] treatment of TRD. The International Union of Pure and Applied Chemistry (IUPAC) name is of the IMP is (2R)-2-(2-chlorophenyl)-2-(methylamino)cyclohexan-1-one. Subjects received the solution at either 30 mg or 60 mg dose, or a placebo. The IMP or placebo was administered on Day 1 as a single IV infusion via an electronic infusion pump over 40 minutes. The duration of study participation for each subject was up to 29 days including a screening period, a 3-day in-clinic visit, and 2 follow-up visits. 101 subjects were enrolled in approximately 20 study centers in the EU and the US.
Tympanic or temporal temperature, heart rate, blood pressure (SBP/DBP), respiratory rate, and SpO2 were assessed. Blood pressure and pulse measurements will be assessed with a completely automated device while the subject is supine or semi-supine. Manual techniques will be used only if an automated device is not available. Blood pressure and pulse measurements should be preceded by at least 5 minutes of rest for the subject in a quiet setting without distractions (e.g., television, cell phones). An abnormal blood pressure value at screening may be repeated once after 5 minutes of relaxation to determine the subject's eligibility. Blood pressure was recorded using the same arm and position (supine or semi-supine) throughout the study, where possible. Vital signs (to be taken before blood collection for laboratory tests) consisted of 1 pulse and 3 blood pressure measurements (3 consecutive blood pressure readings will be recorded at intervals of at least 1 minute). The average of the 3 blood pressure readings was recorded in the CRF. A pulse oximeter was used to measure peripheral capillary oxygen saturation (SpO2) continuously from pre-dose until 4-hours post-dose. A pulse oximeter was clipped onto the finger or foot of the subject, and light will be sent through the finger or foot and measured on the other side.
In these tables, baseline value is defined as the last non-missing value prior to study drug administration.

## CN[C@@]1(c2ccccc2Cl)CCCCC1=O.Cl [R(−)-ketamine, (2R)-2-(2-chlorophenyl)-2-(methylamino)cyclohexan-1-one]
Day 1, 15 minutes
  Temperature, Max: 36.9 °C
  Temperature, Mean: 36.58 °C
  Temperature, Median: 36.50 °C
  Temperature, Min: 36.4 °C
Day 1, 40 minutes
  Temperature, Max: 36.8 °C
  Temperature, Mean: 36.58 °C
  Temperature, Median: 36.60 °C
  Temperature, Min: 36.3 °C
Day 1, 60 minutes
  Temperature, Max: 36.8 °C
  Temperature, Mean: 36.55 °C
  Temperature, Median: 36.50 °C
  Temperature, Min: 36.4 °C
Day 1, 2 hours
  Temperature, Max: 37.0 °C
  Temperature, Mean: 36.60 °C
  Temperature, Median: 36.60 °C
  Temperature, Min: 36.2 °C
Day 1, 4 hours
  Temperature, Max: 37.0 °C
  Temperature, Mean: 36.60 °C
  Temperature, Median: 36.60 °C
  Temperature, Min: 36.3 °C
Day 1, 6 hours
  Temperature, Max: 37.1 °C
  Temperature, Mean: 36.61 °C
  Temperature, Median: 36.60 °C
  Temperature, Min: 36.1 °C
Day 2 - Discharge
  Temperature, Max: 36.9 °C
  Temperature, Mean: 36.60 °C
  Temperature, Median: 36.60 °C
  Temperature, Min: 36.1 °C
Day 8
  Temperature, Max: 37.2 °C
  Temperature, Mean: 36.55 °C
  Temperature, Median: 36.60 °C
  Temperature, Min: 35.8 °C
Day 15
  Temperature, Max: 37.0 °C
  Temperature, Mean: 36.62 °C
  Temperature, Median: 36.60 °C
  Temperature, Min: 36.3 °C
To Day 1, 15 minutes
  Temperature, Change from Baseline, Max: 0.3 °C
  Temperature, Change from Baseline, Mean: 0.04 °C
  Temperature, Change from Baseline, Median: 0.00 °C
  Temperature, Change from Baseline, Min: −0.2 °C
To Day 1, 40 minutes
  Temperature, Change from Baseline, Max: 0.7 °C
  Temperature, Change from Baseline, Mean: 0.05 °C
  Temperature, Change from Baseline, Median: 0.00 °C
  Temperature, Change from Baseline, Min: −0.4 °C
To Day 1, 60 minutes
  Temperature, Change from Baseline, Max: 0.3 °C
  Temperature, Change from Baseline, Mean: 0.01 °C
  Temperature, Change from Baseline, Median: 0.00 °C
  Temperature, Change from Baseline, Min: −0.3 °C
To Day 1, 2 hours
  Temperature, Change from Baseline, Max: 0.8 °C
  Temperature, Change from Baseline, Mean: 0.07 °C
  Temperature, Change from Baseline, Median: 0.00 °C
  Temperature, Change from Baseline, Min: −0.5 °C
To Day 1, 4 hours
  Temperature, Change from Baseline, Max: 0.9 °C
  Temperature, Change from Baseline, Mean: 0.07 °C
  Temperature, Change from Baseline, Median: 0.00 °C
  Temperature, Change from Baseline, Min: −0.2 °C
To Day 1, 6 hours
  Temperature, Change from Baseline, Max: 1.0 °C
  Temperature, Change from Baseline, Mean: 0.07 °C
  Temperature, Change from Baseline, Median: 0.00 °C
  Temperature, Change from Baseline, Min: −0.4 °C
To Day 2 - Discharge
  Temperature, Change from Baseline, Max: 0.6 °C
  Temperature, Change from Baseline, Mean: 0.07 °C
  Temperature, Change from Baseline, Median: 0.10 °C
  Temperature, Change from Baseline, Min: −0.7 °C
To Day 8
  Temperature, Change from Baseline, Max: 1.2 °C
  Temperature, Change from Baseline, Mean: 0.01 °C
  Temperature, Change from Baseline, Median: 0.00 °C
  Temperature, Change from Baseline, Min: −0.9 °C
To Day 15
  Temperature, Change from Baseline, Max: 1.2 °C
  Temperature, Change from Baseline, Mean: 0.08 °C
  Temperature, Change from Baseline, Median: 0.00 °C
  Temperature, Change from Baseline, Min: −0.5 °C
